According to ChEMBL document CHEMBL4257529, “Antifungal amphiphilic kanamycins: new life for an old drug” (Medchemcomm, 2018):
Values after ≈ are worked out from the molar mass of the structure shown.

Assays:
Type in all cases: functional
Fusarium graminearum [1] = assay: Antifungal activity against Fusarium graminearum after 12 to 18 hrs
Escherichia coli [2] = assay: Antibacterial activity against Escherichia coli ATCC 25922 after 12 to 18 hrs
Staphylococcus aureus [3] = assay: Antibacterial activity against Staphylococcus aureus ATCC 25923 after 12 to 18 hrs
Aspergillus flavus [4] = assay: Antifungal activity against Aspergillus flavus after 12 to 18 hrs
Fusarium graminearum [5] = assay: Antifungal activity against Fusarium graminearum by microbroth dilution assay
Fusarium graminearum [6] = assay: Antifungal activity against Fusarium graminearum B4-5A strain E after 48 hrs by microdilution assay
Candida albicans [7] = assay: Antifungal activity against Candida albicans ATCC 10231
Fusarium graminearum [8] = assay: Antifungal activity against Fusarium graminearum B4-5A strain D after 48 hrs by microdilution assay
Candida tropicalis = assay: Antifungal activity against Candida tropicalis 95-41
Cryptococcus neoformans [9] = assay: Antifungal activity against Cryptococcus neoformans 90-26
Fusarium graminearum [10] = assay: Antifungal activity against Fusarium graminearum B4-5A strain A after 48 hrs by microdilution assay
Candida albicans [11] = assay: Antifungal activity against Candida albicans B-311
Candida albicans [12] = assay: Antifungal activity against Candida albicans 94-2181
Candida parapsilosis [13] = assay: Antifungal activity against resistant Candida parapsilosis; conditions: Lodderomyces parapsilosis
Cryptococcus neoformans [14] = assay: Antifungal activity against Cryptococcus neoformans H99; conditions: var grubii H99
Cryptococcus neoformans [15] = assay: Antifungal activity against Cryptococcus neoformans 94-2586
Candida parapsilosis [16] = assay: Antifungal activity against sensitive Candida parapsilosis; conditions: Lodderomyces parapsilosis
Candida albicans [17] = assay: Antifungal activity against resistant Candida albicans ATCC 64124
Fusarium graminearum [18] = assay: Antifungal activity against Fusarium graminearum B4-5A strain C after 48 hrs by microdilution assay
Clavispora lusitaniae = assay: Antifungal activity against Candida lusitaniae 95-767
Diutina rugosa = assay: Antifungal activity against Candida rugosa 95-967
Candida albicans [19] = assay: Antifungal activity against sensitive Candida albicans MYA-2876
Fusarium graminearum [20] = assay: Antifungal activity against Fusarium graminearum B4-5A strain B after 48 hrs by microdilution assay
Staphylococcus aureus [21] = assay: Antibacterial activity against Staphylococcus aureus ATCC 25923
Aspergillus flavus [22] = assay: Antifungal activity against Aspergillus flavus
Fusarium oxysporum = assay: Antifungal activity against Fusarium oxysporum
Fusarium graminearum [23] = assay: Antifungal activity against Fusarium graminearum B-4-5A
Escherichia coli [24] = assay: Antibacterial activity against Escherichia coli TG1
Micrococcus luteus = assay: Antibacterial activity against Micrococcus luteus ATCC 10240
Kluyveromyces marxianus = assay: Antifungal activity against Candida pseudotropicalis YOGI
Aspergillus niger = assay: Antifungal activity against Aspergillus niger

## CCCCCCCCOC[C@H]1O[C@H](O[C@@H]2[C@@H](O)[C@H](O[C@H]3O[C@H](CN)[C@@H](O)[C@H](O)[C@H]3O)[C@@H](N)C[C@H]2N)[C@H](O)[C@@H](N)[C@@H]1OCCCCCCCC
Fusarium graminearum [1]
  MIC: 31.3 µg/mL (≈ 44.2 µM)
Escherichia coli [2]
  MIC: ≥ 250 µg/mL
Staphylococcus aureus [3]
  MIC: ≥ 250 µg/mL
Aspergillus flavus [4]
  MIC: > 500 µg/mL

## CCCCCCCCOC[C@@H]1O[C@@H](O[C@@H]2[C@@H](O)[C@H](O[C@@H]3O[C@@H](CN)[C@H](O)[C@@H](O)[C@@H]3N)[C@@H](N)C[C@H]2N)[C@@H](O)[C@H](O)[C@H]1O (stereo in doubt)
Fusarium graminearum [5]
  MIC: 31.3 µg/mL (≈ 52.5 µM)

## CCCCCCCCO[C@@H]1[C@@H](N)[C@@H](O[C@H]2[C@H](O)[C@@H](O[C@H]3O[C@H](CO)[C@@H](O)[C@H](O)[C@H]3O)[C@H](N)C[C@@H]2N)O[C@H](CN)[C@H]1O
Fusarium graminearum [5]
  MIC: > 500 µg/mL

## CCCCCCCO[C@H]1[C@H](N)[C@@H](O)[C@@H](O[C@@H]2[C@@H](O)[C@H](O[C@H]3O[C@H](CN)[C@@H](O)[C@H](O)[C@H]3O)[C@@H](N)C[C@H]2N)O[C@@H]1CO
Fusarium graminearum [1]
  MIC: 125 µg/mL (≈ 215 µM)
Escherichia coli [2]
  MIC: ≥ 250 µg/mL
Staphylococcus aureus [3]
  MIC: 125 µg/mL (≈ 215 µM)
Aspergillus flavus [4]
  MIC: > 500 µg/mL

## CCCCCCCCO[C@@H]1[C@@H](O[C@H]2O[C@H](CO)[C@@H](O)[C@H](O)[C@H]2O)[C@H](N)C[C@H](N)[C@H]1O[C@H]1O[C@H](CN)[C@@H](O)[C@H](O)[C@H]1N
Fusarium graminearum [5]
  MIC: > 500 µg/mL

## CCCCCCCCO[C@H]1[C@H](O)[C@@H](N)[C@@H](O[C@H]2[C@H](O)[C@@H](O[C@H]3O[C@H](CO)[C@@H](O)[C@H](O)[C@H]3O)[C@H](N)C[C@@H]2N)O[C@@H]1CN
Fusarium graminearum [5]
  MIC: > 500 µg/mL

## CCCCCCOC[C@@H]1O[C@@H](O[C@@H]2[C@@H](O)[C@H](O[C@@H]3O[C@@H](CN)[C@H](O)[C@@H](O)[C@@H]3N)[C@@H](N)C[C@H]2N)[C@@H](O)[C@H](O)[C@H]1O (stereo in doubt)
Fusarium graminearum [5]
  MIC: 125 µg/mL (≈ 220 µM)

## OC(Cn1cncn1)(Cn1cncn1)c1ccc(F)cc1F [FLUCONAZOLE]
Fusarium graminearum [6]
  MIC: > 25 µg/mL
Candida albicans [7]
  MIC: 25 µg/mL (≈ 81.6 µM)
Fusarium graminearum [8]
  MIC: > 12.5 µg/mL
Candida tropicalis
  MIC: > 25 µg/mL
Cryptococcus neoformans [9]
  MIC: > 0.195 µg/mL
Fusarium graminearum [10]
  MIC: > 200 µg/mL
Candida albicans [11]
  MIC: > 25 µg/mL
Candida albicans [12]
  MIC: > 12.5 µg/mL
Candida parapsilosis [13]
  MIC: > 16 µg/mL
Cryptococcus neoformans [14]
  MIC: 1.56 µg/mL (≈ 5.09 µM)
Cryptococcus neoformans [15]
  MIC: 1.56 µg/mL (≈ 5.09 µM)
Candida parapsilosis [16]
  MIC: 0.12 µg/mL (≈ 0.392 µM)
Candida albicans [17]
  MIC: > 200 µg/mL
Fusarium graminearum [18]
  MIC: > 2 µg/mL
Clavispora lusitaniae
  MIC: 1.56 µg/mL (≈ 5.09 µM)
Diutina rugosa
  MIC: > 0.78 µg/mL
Candida albicans [19]
  MIC: 1.56 µg/mL (≈ 5.09 µM)
Fusarium graminearum [20]
  MIC: > 25 µg/mL

## CCCCCCCCO[C@@H]1[C@@H](O)[C@H](O)[C@H](O[C@H]2[C@H](O)[C@@H](O[C@@H]3O[C@@H](CN)[C@H](O)[C@@H](O)[C@@H]3N)[C@H](N)C[C@@H]2N)O[C@H]1CO (single isomer, unassigned)
Fusarium graminearum [5]
  MIC: 7.8 µg/mL (≈ 13.1 µM)

## NC[C@H]1O[C@H](O[C@H]2[C@H](O)[C@@H](O[C@H]3O[C@H](CO)[C@@H](O)[C@H](N)[C@H]3O)[C@H](N)C[C@@H]2N)[C@H](O)[C@@H](O)[C@@H]1O [KANAMYCIN]
Candida albicans [7]
  MIC: > 250 µg/mL
Candida tropicalis
  MIC: > 250 µg/mL
Staphylococcus aureus [21]
  MIC: < 0.98 µg/mL
Aspergillus flavus [22]
  MIC: > 250 µg/mL
Fusarium oxysporum
  MIC: > 250 µg/mL
Cryptococcus neoformans [9]
  MIC: > 250 µg/mL
Fusarium graminearum [23]
  MIC: > 125 µg/mL
Candida albicans [11]
  MIC: > 250 µg/mL
Escherichia coli [24]
  MIC: 1.95 µg/mL (≈ 4.02 µM)
Candida albicans [12]
  MIC: > 250 µg/mL
Micrococcus luteus
  MIC: 1.95 µg/mL (≈ 4.02 µM)
Cryptococcus neoformans [14]
  MIC: > 125 µg/mL
Cryptococcus neoformans [15]
  MIC: > 125 µg/mL
Kluyveromyces marxianus
  MIC: > 250 µg/mL
Candida parapsilosis [16]
  MIC: > 250 µg/mL
Candida albicans [17]
  MIC: > 500 µg/mL
Clavispora lusitaniae
  MIC: > 250 µg/mL
Diutina rugosa
  MIC: > 250 µg/mL
Aspergillus niger
  MIC: > 250 µg/mL
Candida albicans [19]
  MIC: > 250 µg/mL

## CCC(C)n1ncn(-c2ccc(N3CCN(c4ccc(OCC5COC(Cn6cncn6)(c6ccc(Cl)cc6Cl)O5)cc4)CC3)cc2)c1=O (configuration not stated) [ITRACONAZOLE]
Candida albicans [7]
  MIC: 0.75 µg/mL (≈ 1.06 µM)
Candida tropicalis
  MIC: > 25 µg/mL
Aspergillus flavus [22]
  MIC: 0.125 µg/mL (≈ 0.177 µM)
Cryptococcus neoformans [9]
  MIC: 0.37 µg/mL (≈ 0.524 µM)
Candida albicans [11]
  MIC: 16 to 32 µg/mL (≈ 22.7 to 45.3 µM)
Candida albicans [12]
  MIC: 8 to 16 µg/mL (≈ 11.3 to 22.7 µM)
Candida parapsilosis [13]
  MIC: 0.5 µg/mL (≈ 0.709 µM)
Cryptococcus neoformans [14]
  MIC: 1.56 µg/mL (≈ 2.21 µM)
Cryptococcus neoformans [15]
  MIC: 0.06 µg/mL (≈ 0.085 µM)
Kluyveromyces marxianus
  MIC: 0.125 to 0.8 µg/mL (≈ 0.177 to 1.13 µM)
Candida parapsilosis [16]
  MIC: 0.015 µg/mL (≈ 0.0213 µM)
Candida albicans [17]
  MIC: > 64 µg/mL
Clavispora lusitaniae
  MIC: 0.2 µg/mL (≈ 0.283 µM)
Diutina rugosa
  MIC: 0.12 µg/mL (≈ 0.17 µM)
Candida albicans [19]
  MIC: > 2 µg/mL
